Source: US20250304700A1, “ANTI-BLOOD DENDRITIC CELL ANTIGEN 2 ANTIBODIES AND USES THEREOF” (Biogen MA Inc., priority 2012, published 2025)

How the values were obtained:
surface human BDCA2 = target: T1, surface human BDCA2 (Homo sapiens, UniProt Q8WTT0); assay: Direct binding dilution titration FACS on surface human BDCA2; details: transfected cells co-expressing BDCA2 and FcεRIγ
T1 construct: stably transfected DG44 CHO cells co-expressing full-length BDCA2 and FcεRIγcDNAs (human or cynomolgus monkey); expressed in transfected cells
T1 sequence (Q8WTT0 1-213): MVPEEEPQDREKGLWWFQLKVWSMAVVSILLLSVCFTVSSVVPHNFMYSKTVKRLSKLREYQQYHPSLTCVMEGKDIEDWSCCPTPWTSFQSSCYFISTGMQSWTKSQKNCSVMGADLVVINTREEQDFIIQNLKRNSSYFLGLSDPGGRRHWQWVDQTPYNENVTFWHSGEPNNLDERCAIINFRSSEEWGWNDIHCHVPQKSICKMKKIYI
T1 sequence (P30273 19-86 partner): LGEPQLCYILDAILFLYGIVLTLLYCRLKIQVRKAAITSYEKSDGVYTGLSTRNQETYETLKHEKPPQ
Protocol: Expression vectors (ch24F4 heavy chain vectors pYL670 or pYL672 and ch24F4 light chain vector pYL671) were co-transfected into 293-EBNA cells and transfected cells were tested for antibody secretion and specificity (empty vector- and a molecularly cloned irrelevant mAb vector-transfected cells served as controls). […] Direct FACS binding to surface human BDCA2 confirmed the specificity of ch24F4. The EC50 binding of both variants of ch24F4 was equivalent to that of the murine 24F4 mAb by direct binding to surface expressed human BDCA2 by dilution titration FACS assay. Stable CHO cell lines secreting ch24F4-huIgG1, kappa mAb and agly ch24F4-huIgG4/G1 hybrid kappa mAb were produced by co-transfection with pYL672/pYL671 and pYL670/pYL671, respectively.
Site-directed mutagenesis was performed using Agilent's QuikChange II mutagenesis kit following the manufacturer's recommended protocol. The C95S variant was constructed using the mutagenic primer 5′ GCAACCTATTACTGTCAACAAAGTAATGAGGATCCTCGGAC 3′ (SEQ ID NO: 38) and its reverse complement, which introduced a new HincII site, producing plasmid pEAG2678. The C95T variant was constructed using the mutagenic primer 5′ CAACCTATTACTGTCAGCAAACTAATGAAGATCCTCGGACGTTCG 3′ (SEQ ID NO: 39) and its reverse complement, which removed a BamHI site, producing plasmid pEAG2679. […]

[1] = system: IFNα production from SLE sera stimulated pDCs; assay: IFNα production after stimulation with SLE sera; format: cell-based, human; details: sera from an SLE patient at final dilution 1/5
Protocol: The ability of anti-BDCA2 mAb to inhibit IFNα production following stimulation with a physiologically relevant ligand, namely, sera from patients with SLE was also tested. SLE sera are believed to induce type I IFN through complexes of anti-DNA autoantibodies and immunostimulatory hypomethylated DNA that stimulate TLR9. PBMCs were stimulated with sera from an SLE patient (provided by Dr. Gregg Silverman, NYU) and used at a final dilution of 1/5.

[2] = system: type I IFN subtype transcription in pDCs; assay: qPCR of type I IFN subtypes in Sm/RNP IC stimulated pDCs; format: cell-based, human; details: 10 μg/mL BIIB059, 16 hours
Protocol: Sm/RNP immune complexes (IC) were pre-formed by mixing sm-RNP from calf thymus and anti-RNP antibodies purified from sera of SLE patients for 30 minutes in serum-free medium. pDCs from human healthy donors were isolated using a two-step magnetic bead separation procedure (MACS kit, Miltenyi Biotec). […] The plates containing pDC were incubated for 16 hours at 37° C. and 5% CO2. pDC cells were collected and RNA from pDC was isolated for evaluation in qPCR reaction.

[3] = system: cell surface BDCA2 on pDCs; assay: BIIB059 titration in cynomolgus whole blood, anti-human IgG PE detection; format: binding, cynomolgus monkey; details: all cynomolgus monkeys
Protocol: The maximal values were taken from the values at the plateau in each assay (FIGS. 24 and 25).
Whole blood was drawn from twelve cynomolgus monkeys, once a week for three weeks total. […] MFI of PE was calculated with FlowJo software, and EC50 curves were generated in GraphPad Prism software.

surface rat Clec4b2 = assay: Direct FACS binding to surface rat Clec4b2; details: 293E cells co-transfected with rat Clec4b2/FcεRIγ
Description: To determine whether the lead hu24F4 H4/L1 C95A mAb was capable of binding to surface rat Clec4b2, 293E cells were transiently co-transfected with an EGFP reporter expression vector (pEAG1458) and either human BDCA2/FcεRIγ vectors (pEAG2420 and pEAG2413) or rat Clec4b2/FcεRIγ vectors (pCN834 and pCN844) at 1:1:1 molar ratios. At 3 days post-transfection cells were harvested and stained with the lead hu24F4 H4/L1 C95A mAb in a dilution titration direct FACS binding assay, gating on live EGFP-positive cells.

[4] = system: CD32a on the surface of pDCs; assay: CD32 surface expression on isolated pDCs; format: cell-based, human
Description: Treatment with effector competent isotype control had no effect on CD32 surface levels (FIG. 46).
CD40 is a cell surface protein expressed on pDCs. An anti-CD40 antibody with a fully functional Fc has the ability to engage CD40 and bind CD32 on the surface of pDCs.

Chain of surface rat Clec4b2 (as listed by the source): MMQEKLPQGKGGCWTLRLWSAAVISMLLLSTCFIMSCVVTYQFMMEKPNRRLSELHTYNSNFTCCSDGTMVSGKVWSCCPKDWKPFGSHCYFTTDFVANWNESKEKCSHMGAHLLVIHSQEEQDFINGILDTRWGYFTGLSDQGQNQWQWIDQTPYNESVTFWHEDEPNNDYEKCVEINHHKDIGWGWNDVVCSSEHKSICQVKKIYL
Chain of surface rat Clec4b2 (P20411 19-86 partner): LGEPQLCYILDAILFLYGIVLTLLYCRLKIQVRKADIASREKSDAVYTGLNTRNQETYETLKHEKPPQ
Chain of cell surface BDCA2 on pDCs (as listed by the source): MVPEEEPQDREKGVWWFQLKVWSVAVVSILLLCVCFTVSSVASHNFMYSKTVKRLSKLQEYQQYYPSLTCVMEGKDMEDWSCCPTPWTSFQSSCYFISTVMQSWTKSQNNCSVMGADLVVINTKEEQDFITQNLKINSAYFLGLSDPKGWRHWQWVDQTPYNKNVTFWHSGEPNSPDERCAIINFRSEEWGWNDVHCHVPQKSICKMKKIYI

| Substance | direct binding to surface human BDCA2, in words (surface human BDCA2) | IFNα production [1] | transcript level of type I IFN subtypes [2] | concentration that saturates BDCA2 receptor binding [3] [µg/mL] | binding to surface rat Clec4b2 (surface rat Clec4b2) | CD32 MFI ([4]; 10 μg/mL, 1 hour at 4° C.) | CD32 on the cell surface of pDCs ([4]; 16 hours at 37° C.) |
| --- | --- | --- | --- | --- | --- | --- | --- |
| 24F4S: hu24F4 H4/L1 with C95S light chain; differs from BIIB059 by 1 amino acid residue | “best” variants | completely abrogated |  |  |  |  |  |
| BIIB059: humanized IgG1 anti-BDCA2 antibody, mature heavy chain SEQ ID NO: 4 and mature light chain SEQ ID NO: 3 |  |  | inhibited the transcript level of all type I IFN subtypes tested | 10 | no binding to surface rat Clec4b2 was detected | did not decrease the CD32 MFI | able to induce the down-modulation of CD32 |
